# Experimental data from ChEMBL document CHEMBL4270669 (J Med Chem, 2018).
# Active and inactive are the calls of the source. No cut-off for these calls is given here.
# Key:
# [1] = target: Phosphatidylinositol 4-kinase beta (Homo sapiens, UniProt Q9UBF8)
# Description: Inhibition of human PI4Kbeta (1 to 828 residues) expressed in mammalian expression system by KINOMEscan assay
# [2] = target: Phosphatidylinositol 4,5-bisphosphate 3-kinase catalytic subunit beta isoform (Homo sapiens, UniProt P42338)
# Description: Inhibition of human PI3Kbeta (118 to 1070 residues) expressed in mammalian expression system by KINOMEscan assay
# [3] = target: Phosphatidylinositol 4,5-bisphosphate 3-kinase catalytic subunit alpha isoform (Homo sapiens, UniProt P42336)
# Description: Inhibition of human PI3Kalpha (108 to 1068 residues) expressed in mammalian expression system by KINOMEscan assay
# Mus musculus = assay: Increase in insulin levels in C57BL/6JRj mouse plasma at 50 mg/kg, po administered as single dose; type: functional, organism-based
# [4] = target: T1, Serine/threonine-protein kinase mTOR (Homo sapiens, UniProt P42345)
# Description: Inhibition of human mTOR (1382 to 2549 residues) expressed in mammalian expression system by KINOMEscan assay
# Rattus norvegicus = assay: Increase in insulin levels in Sprague-Dawley rat plasma at 10 mg/kg, po administered as single dose; type: functional, organism-based
# [5] = target: T2, Phosphatidylinositol 4,5-bisphosphate 3-kinase catalytic subunit delta isoform (Homo sapiens, UniProt O00329)
# T2 sequence (O00329 whole entry): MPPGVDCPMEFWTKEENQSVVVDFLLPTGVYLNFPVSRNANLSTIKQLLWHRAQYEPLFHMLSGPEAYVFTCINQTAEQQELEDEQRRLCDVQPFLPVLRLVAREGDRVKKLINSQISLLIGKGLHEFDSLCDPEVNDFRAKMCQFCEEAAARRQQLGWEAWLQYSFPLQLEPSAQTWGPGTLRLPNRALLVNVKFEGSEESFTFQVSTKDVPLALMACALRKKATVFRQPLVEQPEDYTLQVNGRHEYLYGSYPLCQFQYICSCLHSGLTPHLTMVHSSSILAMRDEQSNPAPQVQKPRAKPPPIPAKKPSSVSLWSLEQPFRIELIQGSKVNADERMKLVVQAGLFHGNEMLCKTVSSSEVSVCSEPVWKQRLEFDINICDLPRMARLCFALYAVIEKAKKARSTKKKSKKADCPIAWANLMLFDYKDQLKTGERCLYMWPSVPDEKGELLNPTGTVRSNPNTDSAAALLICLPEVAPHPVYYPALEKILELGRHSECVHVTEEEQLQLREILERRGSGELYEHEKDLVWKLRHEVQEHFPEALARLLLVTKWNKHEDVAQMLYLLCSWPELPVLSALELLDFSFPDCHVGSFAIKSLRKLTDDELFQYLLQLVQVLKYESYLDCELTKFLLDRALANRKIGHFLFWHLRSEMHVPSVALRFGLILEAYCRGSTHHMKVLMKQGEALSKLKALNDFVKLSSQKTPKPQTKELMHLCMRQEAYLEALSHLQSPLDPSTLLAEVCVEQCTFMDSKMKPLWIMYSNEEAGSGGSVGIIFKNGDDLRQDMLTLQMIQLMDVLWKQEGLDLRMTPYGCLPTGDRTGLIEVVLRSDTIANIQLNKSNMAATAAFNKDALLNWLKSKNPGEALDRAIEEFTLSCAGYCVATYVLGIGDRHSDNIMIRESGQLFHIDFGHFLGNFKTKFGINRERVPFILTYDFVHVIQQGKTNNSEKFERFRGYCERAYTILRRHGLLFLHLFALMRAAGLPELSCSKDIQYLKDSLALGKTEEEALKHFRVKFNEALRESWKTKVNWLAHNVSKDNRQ
# Description: Inhibition of human PI3Kdelta (108 to 1044 residues) expressed in mammalian expression system by KINOMEscan assay
# [6] = Drug uptake in Sprague-Dawley rat brain at 10 mg/kg, po administered as single dose after 4 hrs; type: ADME, organism-based; conditions: read-out: Drug uptake
# [7] = target: Phosphatidylinositol 3-kinase catalytic subunit type 3 (Homo sapiens, UniProt Q8NEB9); assay: Inhibition of human VPS34 (282 to 879 residues) expressed in mammalian expression system by KINOMEscan assay
# [8] = Ratio of drug level in Sprague-Dawley rat brain to plasma at 10 mg/kg, po administered as single dose; type: ADME, organism-based; conditions: read-out: BPR
# [9] = target: Phosphatidylinositol 4,5-bisphosphate 3-kinase catalytic subunit gamma isoform (Homo sapiens, UniProt P48736)
# Description: Inhibition of human PI3Kgamma (144 to 1102 residues) expressed in mammalian expression system by KINOMEscan assay
# [10] = target: T1, Serine/threonine-protein kinase mTOR; assay: Binding affinity to mTOR FKBP12 site (unknown origin)
# Phosphatidylinositol 4-kinase beta, sequence (Q9UBF8 whole entry, canonical isoform): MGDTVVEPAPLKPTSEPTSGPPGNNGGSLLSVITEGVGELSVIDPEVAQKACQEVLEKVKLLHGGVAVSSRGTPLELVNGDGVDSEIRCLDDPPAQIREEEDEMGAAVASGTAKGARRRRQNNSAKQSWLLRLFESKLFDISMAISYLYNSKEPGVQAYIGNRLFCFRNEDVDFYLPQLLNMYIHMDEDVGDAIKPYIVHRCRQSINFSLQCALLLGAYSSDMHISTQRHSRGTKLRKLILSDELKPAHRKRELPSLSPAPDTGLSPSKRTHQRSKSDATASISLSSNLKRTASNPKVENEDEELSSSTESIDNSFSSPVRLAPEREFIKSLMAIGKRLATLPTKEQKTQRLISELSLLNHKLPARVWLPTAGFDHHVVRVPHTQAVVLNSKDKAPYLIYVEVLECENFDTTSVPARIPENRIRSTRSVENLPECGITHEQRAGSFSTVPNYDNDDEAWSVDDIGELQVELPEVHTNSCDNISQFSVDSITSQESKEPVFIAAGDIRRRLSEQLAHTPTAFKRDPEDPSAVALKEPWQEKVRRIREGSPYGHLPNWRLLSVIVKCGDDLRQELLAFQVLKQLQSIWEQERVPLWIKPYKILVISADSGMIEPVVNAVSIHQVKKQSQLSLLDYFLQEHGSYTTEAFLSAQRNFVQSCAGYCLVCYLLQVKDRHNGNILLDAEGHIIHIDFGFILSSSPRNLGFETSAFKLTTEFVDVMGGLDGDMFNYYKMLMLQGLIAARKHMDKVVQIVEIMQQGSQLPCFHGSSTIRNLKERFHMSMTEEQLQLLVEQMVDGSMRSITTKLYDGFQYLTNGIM
# Phosphatidylinositol 4,5-bisphosphate 3-kinase catalytic subunit alpha isoform, sequence (P42336 whole entry, canonical isoform): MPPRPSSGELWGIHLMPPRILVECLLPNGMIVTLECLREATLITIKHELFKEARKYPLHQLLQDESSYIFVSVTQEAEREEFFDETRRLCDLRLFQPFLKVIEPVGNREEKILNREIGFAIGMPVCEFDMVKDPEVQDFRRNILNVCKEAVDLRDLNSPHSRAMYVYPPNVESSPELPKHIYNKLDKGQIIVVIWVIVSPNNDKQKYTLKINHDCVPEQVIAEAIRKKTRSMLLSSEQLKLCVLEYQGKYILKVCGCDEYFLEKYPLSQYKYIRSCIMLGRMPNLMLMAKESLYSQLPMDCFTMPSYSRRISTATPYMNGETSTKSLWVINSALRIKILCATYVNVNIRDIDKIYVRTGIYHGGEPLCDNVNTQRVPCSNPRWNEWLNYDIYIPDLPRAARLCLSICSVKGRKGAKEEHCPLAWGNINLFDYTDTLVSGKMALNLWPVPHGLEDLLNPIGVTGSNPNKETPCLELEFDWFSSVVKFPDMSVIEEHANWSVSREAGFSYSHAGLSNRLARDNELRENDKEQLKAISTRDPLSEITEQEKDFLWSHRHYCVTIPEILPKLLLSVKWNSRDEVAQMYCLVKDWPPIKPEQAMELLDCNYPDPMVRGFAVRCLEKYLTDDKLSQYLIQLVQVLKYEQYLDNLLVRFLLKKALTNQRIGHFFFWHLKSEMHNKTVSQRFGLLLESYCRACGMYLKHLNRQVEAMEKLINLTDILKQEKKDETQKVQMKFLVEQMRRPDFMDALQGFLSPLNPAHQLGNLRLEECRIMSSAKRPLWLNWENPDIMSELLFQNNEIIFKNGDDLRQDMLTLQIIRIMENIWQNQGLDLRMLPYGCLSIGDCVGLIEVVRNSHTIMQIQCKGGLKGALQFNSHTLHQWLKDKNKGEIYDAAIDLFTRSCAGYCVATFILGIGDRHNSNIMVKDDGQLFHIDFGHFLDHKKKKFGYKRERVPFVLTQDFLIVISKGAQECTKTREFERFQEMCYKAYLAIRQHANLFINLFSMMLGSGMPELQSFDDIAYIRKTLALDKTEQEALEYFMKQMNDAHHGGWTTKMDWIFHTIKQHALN
# Phosphatidylinositol 3-kinase catalytic subunit type 3, sequence (Q8NEB9 whole entry, the tested form may be a part): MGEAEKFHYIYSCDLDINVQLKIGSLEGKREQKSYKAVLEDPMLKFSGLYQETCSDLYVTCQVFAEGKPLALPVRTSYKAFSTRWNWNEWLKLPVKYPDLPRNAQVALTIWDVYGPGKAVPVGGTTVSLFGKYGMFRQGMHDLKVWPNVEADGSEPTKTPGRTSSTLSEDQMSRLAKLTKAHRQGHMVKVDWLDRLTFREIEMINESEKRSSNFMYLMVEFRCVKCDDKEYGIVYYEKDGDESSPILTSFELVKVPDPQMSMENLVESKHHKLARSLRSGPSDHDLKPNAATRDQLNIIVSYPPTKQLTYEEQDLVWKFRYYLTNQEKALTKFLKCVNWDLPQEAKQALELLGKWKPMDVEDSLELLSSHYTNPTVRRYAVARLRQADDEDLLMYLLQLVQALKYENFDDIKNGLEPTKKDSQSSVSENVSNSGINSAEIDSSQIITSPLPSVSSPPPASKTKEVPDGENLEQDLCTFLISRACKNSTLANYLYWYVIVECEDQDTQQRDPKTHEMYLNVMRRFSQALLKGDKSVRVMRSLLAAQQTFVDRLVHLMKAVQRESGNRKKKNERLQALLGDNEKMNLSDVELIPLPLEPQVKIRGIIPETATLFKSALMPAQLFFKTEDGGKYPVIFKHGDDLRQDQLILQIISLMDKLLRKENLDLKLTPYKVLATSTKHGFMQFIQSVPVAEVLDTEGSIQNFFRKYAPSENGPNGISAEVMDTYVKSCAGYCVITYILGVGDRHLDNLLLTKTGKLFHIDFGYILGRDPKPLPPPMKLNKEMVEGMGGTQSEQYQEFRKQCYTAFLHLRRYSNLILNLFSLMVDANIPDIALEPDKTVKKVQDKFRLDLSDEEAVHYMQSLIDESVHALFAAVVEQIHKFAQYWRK
# Phosphatidylinositol 4,5-bisphosphate 3-kinase catalytic subunit gamma isoform, sequence (P48736 whole entry, canonical isoform): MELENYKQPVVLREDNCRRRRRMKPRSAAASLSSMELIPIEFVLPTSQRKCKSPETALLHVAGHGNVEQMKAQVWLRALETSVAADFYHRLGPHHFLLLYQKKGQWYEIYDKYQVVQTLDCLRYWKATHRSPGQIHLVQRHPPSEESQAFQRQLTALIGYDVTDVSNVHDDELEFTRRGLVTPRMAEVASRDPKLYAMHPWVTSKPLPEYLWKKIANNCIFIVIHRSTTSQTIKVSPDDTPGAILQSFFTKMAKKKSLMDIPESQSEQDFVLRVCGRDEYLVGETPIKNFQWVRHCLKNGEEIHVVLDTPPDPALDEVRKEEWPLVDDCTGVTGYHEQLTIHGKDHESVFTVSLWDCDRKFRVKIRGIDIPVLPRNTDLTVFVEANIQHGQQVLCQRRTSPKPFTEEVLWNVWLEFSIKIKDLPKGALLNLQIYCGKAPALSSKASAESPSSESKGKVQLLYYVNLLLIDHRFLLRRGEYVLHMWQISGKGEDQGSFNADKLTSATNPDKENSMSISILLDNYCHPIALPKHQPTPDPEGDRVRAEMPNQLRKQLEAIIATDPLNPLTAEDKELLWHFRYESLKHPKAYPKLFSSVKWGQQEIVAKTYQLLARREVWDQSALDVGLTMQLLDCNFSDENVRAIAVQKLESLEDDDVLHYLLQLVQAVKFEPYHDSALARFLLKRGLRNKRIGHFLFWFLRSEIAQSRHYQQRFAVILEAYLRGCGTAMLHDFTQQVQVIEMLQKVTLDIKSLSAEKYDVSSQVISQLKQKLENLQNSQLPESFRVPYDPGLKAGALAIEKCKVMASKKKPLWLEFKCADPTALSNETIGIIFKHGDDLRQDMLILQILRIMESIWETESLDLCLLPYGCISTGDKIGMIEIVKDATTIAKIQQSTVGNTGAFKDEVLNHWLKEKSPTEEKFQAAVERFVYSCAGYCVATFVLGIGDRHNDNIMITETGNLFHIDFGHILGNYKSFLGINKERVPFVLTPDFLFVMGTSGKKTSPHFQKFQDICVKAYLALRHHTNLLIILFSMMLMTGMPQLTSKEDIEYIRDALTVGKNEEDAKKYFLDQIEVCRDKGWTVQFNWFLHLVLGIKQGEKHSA
# Phosphatidylinositol 4,5-bisphosphate 3-kinase catalytic subunit beta isoform, sequence (P42338 whole entry, canonical isoform): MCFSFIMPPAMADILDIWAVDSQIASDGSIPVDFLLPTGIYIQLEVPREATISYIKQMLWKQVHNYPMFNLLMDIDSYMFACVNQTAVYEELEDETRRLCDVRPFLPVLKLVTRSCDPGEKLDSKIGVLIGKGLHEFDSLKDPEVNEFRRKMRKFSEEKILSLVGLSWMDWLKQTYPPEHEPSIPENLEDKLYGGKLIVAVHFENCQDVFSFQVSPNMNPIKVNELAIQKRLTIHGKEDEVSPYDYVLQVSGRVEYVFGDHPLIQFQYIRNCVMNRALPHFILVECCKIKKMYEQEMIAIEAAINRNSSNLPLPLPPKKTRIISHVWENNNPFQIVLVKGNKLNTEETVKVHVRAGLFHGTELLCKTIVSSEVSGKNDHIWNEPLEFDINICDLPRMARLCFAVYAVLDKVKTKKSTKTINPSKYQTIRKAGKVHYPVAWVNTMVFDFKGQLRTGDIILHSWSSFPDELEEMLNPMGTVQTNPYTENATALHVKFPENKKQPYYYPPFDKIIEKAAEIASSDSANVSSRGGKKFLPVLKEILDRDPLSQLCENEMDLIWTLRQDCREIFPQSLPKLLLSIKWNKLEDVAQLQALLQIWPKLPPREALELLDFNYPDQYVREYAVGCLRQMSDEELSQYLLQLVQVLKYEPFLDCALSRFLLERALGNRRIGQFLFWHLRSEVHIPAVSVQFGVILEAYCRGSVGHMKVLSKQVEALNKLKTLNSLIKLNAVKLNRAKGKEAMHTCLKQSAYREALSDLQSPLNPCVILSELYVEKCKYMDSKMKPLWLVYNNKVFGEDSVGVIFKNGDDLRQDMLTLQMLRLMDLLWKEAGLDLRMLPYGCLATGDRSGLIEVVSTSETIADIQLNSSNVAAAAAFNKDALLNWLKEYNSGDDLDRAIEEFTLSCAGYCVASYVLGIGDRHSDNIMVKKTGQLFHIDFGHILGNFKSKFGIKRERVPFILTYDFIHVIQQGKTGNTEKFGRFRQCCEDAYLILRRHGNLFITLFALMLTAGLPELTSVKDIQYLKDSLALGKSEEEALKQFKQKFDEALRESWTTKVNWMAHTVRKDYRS
Structure (SMILES),Kd [1] [µM],Kd [2] [µM],Kd [3] [µM],Activity (Mus musculus),Kd [4] [µM],Activity (Rattus norvegicus),Kd [5] [µM],concentration at 4 h [6] [ng/g],Kd [7] [µM],Kp [8],Kd [9] [µM],Kd [10] [µM]
CCC(CC)n1cnc2c(-c3cnc(N)cn3)nc(N3CC4CCC(C3)O4)nc21,> 30,20,2.7,inactive,0.00085,inactive,> 30,170,8.3,0.178,22,
CO[C@H]1C[C@@H]2CC[C@@H](C)[C@@](O)(O2)C(=O)C(=O)N2CCCC[C@H]2C(=O)O[C@H]([C@H](C)C[C@@H]2CC[C@@H](OCCO)[C@H](OC)C2)CC(=O)[C@H](C)/C=C(\C)[C@@H](O)[C@@H](OC)C(=O)[C@H](C)C[C@H](C)/C=C/C=C/C=C/1C [EVEROLIMUS],,,,,,,,,,,,0.002
